Measured values: patent US20240246941A1, “SUBSTITUTED 4-(3-AMINOPROP-1-YL)AMINOQUINOLINE ANALOGS AS MODULATORS OF MELANOMA-ASSOCIATED ANTIGEN 11 UBIQUITIN LIGASE” (ST. JUDE CHILDREN'S RESEARCH HOSPITAL, INC., priority 2020, published 2024)
pIC50: −log10 of the molar value. Like-named read-outs stand apart in the source and are kept apart here.

Target: interaction between GST-MAGEA11 MHD and FAM-PCF11_4 peptide (MAGE-A11:PCF11) (Homo sapiens (Human), UniProt P43364)
Experiment: TR-FRET dose response competition assay for disruption of MAGE-A11:PCF11 binding
How it was run: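 Competition TR-FRET at room temperature in 50 mM Tris pH 7.5, 20 mM MgCl2, 0.1 mg/ml BSA, 1 mM DTT: final 5 nM GST-MAGEA11 MHD, 5 nM Tb-anti-GST, 200 nM FAM-PCF11_4, 90 min. Ratio 520/490 nm converted to % inhibition; IC50 from sigmoidal fit.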

[1] = Table 8, representative compounds, read-out: TR-FRET IC50
[2] = Dose response TR-FRET screening of nine scaffold groups against MAGE-A11:PCF11, read-out: consensus IC50
[3] = Table 5, dose response TR-FRET screening of 59 quinoline compounds against MAGE-A11:PCF11, read-out: TR-FRET IC50

Sequence of interaction between GST-MAGEA11 MHD and FAM-PCF11_4 peptide (MAGE-A11:PCF11) (P43364 218-429): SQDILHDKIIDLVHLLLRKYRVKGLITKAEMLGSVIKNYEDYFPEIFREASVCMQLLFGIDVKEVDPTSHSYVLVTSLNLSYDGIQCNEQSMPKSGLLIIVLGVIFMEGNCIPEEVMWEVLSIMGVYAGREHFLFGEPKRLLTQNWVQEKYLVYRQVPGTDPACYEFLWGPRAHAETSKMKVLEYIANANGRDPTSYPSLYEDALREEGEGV

Row | SMILES | pIC50 [2] | also measured
1 | COc1cccc(CNCCCNc2ccnc3cc(Cc4c(Cl)cccc4Cl)ccc23)c1O [SJ000311315] | – | pIC50 [1]: 4.86
2 | Clc1cccc(Cl)c1Cc1ccc2c(NCCCNCc3cccc4c3OCO4)ccnc2c1 [SJ000311316-1] | 4.96 | –
3 | Clc1cccc(Cl)c1Cc1ccc2c(NCCCNCc3cccc4c3OCO4)ccnc2c1 [SJ000311316] | – | pIC50 [1]: 4.96
4 | COc1ccc(F)cc1CNCCCNc1ccnc2cc(Cc3c(Cl)cccc3Cl)ccc12 [SJ000311317-1] | 4.91 | –
5 | COc1ccc(F)cc1CNCCCNc1ccnc2cc(Cc3c(Cl)cccc3Cl)ccc12 [SJ000311317] | – | pIC50 [1]: 4.91
6 | Cc1cc(C)cc(Cc2ccc3c(NCCCNCc4ccco4)ccnc3c2)c1 [SJ000311318-2] | – | pIC50 [3]: < 4.15
7 | COc1cccc(CNCCCNc2ccnc3cc(Cc4cc(C)cc(C)c4)ccc23)c1O [SJ000311319-1] | 4.63 | –
8 | COc1cccc(CNCCCNc2ccnc3cc(Cc4cc(C)cc(C)c4)ccc23)c1O [SJ000311319] | – | pIC50 [1]: 4.63
9 | Cc1cc(C)cc(Cc2ccc3c(NCCCNCc4cccc5c4OCO5)ccnc3c2)c1 [SJ000311320-1] | 4.79 | –
10 | Cc1cc(C)cc(Cc2ccc3c(NCCCNCc4cccc5c4OCO5)ccnc3c2)c1 [SJ000311320] | – | pIC50 [1]: 4.79
11 | COc1ccc(F)cc1CNCCCNc1ccnc2cc(Cc3cc(C)cc(C)c3)ccc12 [SJ000311321-1] | 5.04 | –
12 | COc1ccc(F)cc1CNCCCNc1ccnc2cc(Cc3cc(C)cc(C)c3)ccc12 [SJ000311321] | – | pIC50 [1]: 5.04
13 | COc1cccc(CNCCCNc2ccnc3cc(Cc4ccc(F)cc4Cl)ccc23)c1O [SJ000311323-1] | 4.75 | –
14 | COc1cccc(CNCCCNc2ccnc3cc(Cc4ccc(F)cc4Cl)ccc23)c1O [SJ000311323] | – | pIC50 [1]: 4.75
15 | Fc1ccc(Cc2ccc3c(NCCCNCc4cccc5c4OCO5)ccnc3c2)c(Cl)c1 [SJ000311324-1] | 4.69 | –
16 | Fc1ccc(Cc2ccc3c(NCCCNCc4cccc5c4OCO5)ccnc3c2)c(Cl)c1 [SJ000311324] | – | pIC50 [1]: 4.69
17 | COc1ccc(F)cc1CNCCCNc1ccnc2cc(Cc3ccc(F)cc3Cl)ccc12 [SJ000311325-1] | 4.75 | –
18 | COc1ccc(F)cc1CNCCCNc1ccnc2cc(Cc3ccc(F)cc3Cl)ccc12 [SJ000311325] | – | pIC50 [1]: 4.75
19 | COc1cccc(F)c1CNCCCNc1ccnc2cc(Cl)ccc12 [SJ000311328-2] | 4.16 | –
20 | COc1cccc(F)c1CNCCCNc1ccnc2cc(Cl)ccc12 [SJ000311328] | – | pIC50 [1]: 4.16
21 | O=C1C(Cl)=C(NCCN2CCOCC2)C(=O)c2ncccc21 [SJ000312204-6] | 5.65 | –
22 | CCc1c2c(nc3ccc(OC(=O)N4CCC(N5CCCCC5)CC4)cc13)-c1cc3c(c(=O)n1C2)COC(=O)[C@]3(O)CC [SJ000312345] | – | pIC50 [1]: < 4.23
23 | Cc1ccccc1-c1nc(S(=O)(=O)c2ccc(F)cc2)c(N2CC(C)OC(C)C2)o1 (stereo not drawn) [SJ000329031-1] | 4.16 | –
24 | Cc1ccc(S(=O)(=O)c2nc(-c3ccccc3C)oc2N2CC(C)OC(C)C2)cc1 (stereo not drawn) [SJ000329041-1] | 4.93 | –

Row | SMILES | pIC50 [2] | also measured
25 | Cc1ccccc1-c1nc(S(=O)(=O)c2ccc(Cl)cc2)c(N2CC(C)OC(C)C2)o1 (stereo not drawn) [SJ000329051-1] | 4.16 | –
26 | Cc1ccc(S(=O)(=O)c2nc(-c3ccccc3Cl)oc2N2CC(C)OC(C)C2)cc1 (stereo not drawn) [SJ000329066-1] | 4.89 | –
27 | CC1CN(c2oc(-c3ccccc3F)nc2S(=O)(=O)c2ccc(F)cc2)CC(C)O1 (stereo not drawn) [SJ000329067-1] | 4.56 | –
28 | Oc1c(F)cc(F)cc1CN(CCCCNc1ccnc2cc(Cl)ccc12)Cc1ccccc1 [SJ000357506-2] | – | pIC50 [3]: < 4.15
29 | CC(C)(C)CCN(CCCCNc1ccnc2cc(Cl)ccc12)Cc1ccccc1 [SJ000357537-2] | – | pIC50 [3]: < 4.15
30 | Clc1ccc2c(NCCCNCc3ccccc3)ccnc2c1 [SJ000361100-1] | 4.16 | –
31 | Clc1ccc2c(NCCCNCc3ccccc3)ccnc2c1 [SJ000361100] | – | pIC50 [1]: 4.16
32 | FC(F)(F)c1ccc2c(NCCCNCc3ccc[nH]3)ccnc2c1 [SJ000361105-1] | – | pIC50 [3]: 4.48
33 | FC(F)(F)c1ccc2c(NCCCNCc3ccc4c(c3)OCO4)ccnc2c1 [SJ000361106-1] | 4.16 | –
34 | FC(F)(F)c1ccc2c(NCCCNCc3ccccc3)ccnc2c1 [SJ000361107-1] | 4.16 | –
35 | FC(F)(F)c1ccc2c(NCCCNCc3ccccc3)ccnc2c1 [SJ000361107] | – | pIC50 [1]: 4.16
36 | Clc1ccc2c(NCCCNCc3c4ccccc4cc4ccccc34)ccnc2c1 [SJ000361122-2] | 4.16 | –
37 | Clc1ccc2c(NCCCNCc3c4ccccc4cc4ccccc34)ccnc2c1 [SJ000361122] | – | pIC50 [1]: 4.16
38 | CCCCCCNCCCNc1ccnc2cc(C(F)(F)F)ccc12 [SJ000361124-1] | – | pIC50 [3]: 4.24
39 | FC(F)(F)c1ccc2c(NCCCNCc3c4ccccc4cc4ccccc34)ccnc2c1 [SJ000361126-1] | 4.16 | –
40 | FC(F)(F)c1ccc2c(NCCCNCc3c4ccccc4cc4ccccc34)ccnc2c1 [SJ000361126] | – | pIC50 [1]: 4.16
41 | C=C1C=C(C)C=C(C)C(CN(CCCNc2ccnc3cc(Cl)ccc23)Cc2ccccc2)=C1 [SJ000361169-2] | – | pIC50 [3]: < 4.15
42 | Clc1ccc2c(NCCCCN(Cc3ccccc3)CC3CCCCC3)ccnc2c1 [SJ000361194-2] | – | pIC50 [3]: < 4.15
43 | Clc1ccc(CN(CCCCNc2ccnc3cc(Cl)ccc23)Cc2ccccc2)c(Cl)c1 [SJ000361207-2] | – | pIC50 [3]: < 4.15
44 | CCC(C)CN(CCCCNc1ccnc2cc(Cl)ccc12)Cc1ccccc1 (stereo not drawn) [SJ000361208-2] | – | pIC50 [3]: < 4.15
45 | Cc1ccc(C)c(CN(CCCCNc2ccnc3cc(Cl)ccc23)Cc2ccccc2)c1 [SJ000361209-2] | – | pIC50 [3]: < 4.15
46 | CCCN(CCNc1ccnc2cc(C(F)(F)F)ccc12)Cc1ccc[nH]1 [SJ000361255-1] | – | pIC50 [3]: < 4.15
47 | CCCN(CCCNc1ccnc2cc(C(F)(F)F)ccc12)CC1CC1 [SJ000361266-1] | – | pIC50 [3]: < 4.15
48 | CCCN(CCCNc1ccnc2cc(C(F)(F)F)ccc12)CC1CCCCC1 [SJ000361268-1] | – | pIC50 [3]: < 4.15

Row | SMILES | pIC50 [2] | also measured
49 | CCCN(CCCNc1ccnc2cc(C(F)(F)F)ccc12)CC(CC)CC [SJ000361269-1] | – | pIC50 [3]: < 4.15
50 | CCCCCN(CCC)CCCNc1ccnc2cc(C(F)(F)F)ccc12 [SJ000361271-1] | – | pIC50 [3]: < 4.15
51 | COc1ccc(C2=C(c3ccc([N+](=O)[O-])cc3)C(=O)OC2)cc1 [SJ000367280-1] | 4.16 | –
52 | CC(C)(C)c1ccc(C2=C(c3ccc([N+](=O)[O-])cc3)C(=O)OC2)cc1 [SJ000368097-1] | 4.16 | –
53 | CCCc1ccc(C2=C(c3ccc([N+](=O)[O-])cc3)C(=O)OC2)cc1 [SJ000368117-1] | 4.16 | –
54 | CCc1ccc(C2=C(c3ccc([N+](=O)[O-])cc3)C(=O)OC2)cc1 [SJ000368127-1] | 4.16 | –
55 | O=C1OCC(c2ccc(OC(F)F)cc2)=C1c1ccc([N+](=O)[O-])cc1 [SJ000368145-1] | 4.39 | –
56 | O=C1OCC(c2ccc(F)cc2)=C1c1ccc([N+](=O)[O-])cc1 [SJ000368155-1] | 4.16 | –
57 | CCC(C)c1ccc(C2=C(c3ccc([N+](=O)[O-])cc3)C(=O)OC2)cc1 (stereo not drawn) [SJ000368165-1] | 4.16 | –
58 | CCCn1c(-c2ccc(Cl)cc2)nc2c1c(=O)[nH]c(=O)n2Cc1ccccc1 [SJ000375541-1] | 4.16 | –
59 | CCCn1c(-c2ccc(C(C)(C)C)cc2)nc2c1c(=O)[nH]c(=O)n2Cc1ccccc1 [SJ000375920-1] | 4.16 | –
60 | CCCn1c(-c2cccc([N+](=O)[O-])c2)nc2c1c(=O)[nH]c(=O)n2Cc1ccccc1 [SJ000376601-1] | 4.16 | –
61 | CCCn1c(-c2ccc(OC(F)F)cc2)nc2c1c(=O)[nH]c(=O)n2Cc1ccccc1 [SJ000376621-1] | 4.16 | –
62 | CCCn1c(=O)[nH]c(=O)c2c1nc(-c1ccc(OC(F)F)cc1)n2CCN1CCOCC1 [SJ000377779-1] | 4.16 | –
63 | CCCn1c(=O)[nH]c(=O)c2c1nc(-c1ccc(C(C)(C)C)cc1)n2CCN1CCOCC1 [SJ000377955-1] | 4.16 | –
64 | CCCCn1c(=O)[nH]c(=O)c2c1nc(-c1ccc(CC)c([N+](=O)[O-])c1)n2C [SJ000378868-1] | 4.16 | –
65 | C=CCOc1ccc(-c2nc3c(c(=O)[nH]c(=O)n3CCC)n2CCCC)cc1 [SJ000378878-1] | 4.16 | –
66 | C=CCOc1ccc(-c2nc3c(c(=O)[nH]c(=O)n3Cc3ccccc3)n2CCCOC)cc1 [SJ000378880-1] | 4.16 | –
67 | CCCn1c(=O)[nH]c(=O)c2c1nc(-c1ccc(OC)c(Br)c1)n2CCOC [SJ000378893-1] | 4.16 | –
68 | CCCCCn1c(-c2ccc(F)c(Br)c2)nc2c1c(=O)[nH]c(=O)n2CCCC [SJ000378900-1] | 5.58 | –
69 | CCCCn1c(=O)[nH]c(=O)c2c1nc(-c1ccc(OCC(C)C)c(OCC)c1)n2CC [SJ000378903-1] | 4.16 | –
70 | CCCCn1c(-c2ccc(OCCC)c(OCC)c2)nc2c1c(=O)[nH]c(=O)n2CCC [SJ000378906-1] | 4.16 | –
71 | CCCCn1c(-c2ccc(Cl)cc2)nc2c1c(=O)[nH]c(=O)n2Cc1ccccc1 [SJ000378907-1] | 4.16 | –
72 | CCCCn1c(=O)[nH]c(=O)c2c1nc(-c1ccc(C(F)(F)F)cc1)n2C [SJ000378916-1] | 4.16 | –
